Read-outs that look alike come from different tables or passages of the source.
How the values were obtained:
RT112 cells = experiment: Luminescent Viability Assay (LVA, FGFR3); type: cell-based; conditions: Homo sapiens, RT-112, 72 h, 3 days, CellTiter-Glo
Procedure: RT112 cells were purchased from ATCC (Manassas, Va.) and maintained in RPMI, 10% FBS (Gibco/Life Technologies). To measure the effect of test compounds on the viability of cells, the cells were plated with RPMI 10% FBS (5×10^3 cells/well/in 50 μL) into black 96-well Greiner polystyrene in the presence or absence of 50 μl of a concentration range of test compounds. After 3 days, 100 μl of CellTiter-Glo Reagent (Promega) was added. Luminescence was read with a TopCount (PerkinElmer). IC50 determination was performed by fitting the curve of percent inhibition versus the log of the inhibitor concentration using the GraphPad Prism 5.0 software.

FGFR3 (UP) = FGFR3 (UP) (Homo sapiens (Human), UniProt P22607); experiment: FGFR Enzymatic Assay, FGFR3 un-phosphorylated
FGFR2 (P) = FGFR2 (P) (Homo sapiens (Human), UniProt P21802); experiment: FGFR Enzymatic Assay, FGFR2 phosphorylated; conditions: phosphorylated enzyme, ATP near or below Km
Procedure: The inhibitor potency of the exemplified compounds was determined in an enzyme discontinuous assay that measures peptide phosphorylation using FRET measurements to detect product formation. Inhibitors were serially diluted in DMSO and a volume of 0.2 μL was transferred to the wells of a 384-well plate. For the isoforms of FGFR (−1, −2, −3 wild-type and mutant isoforms, −4) including phosphorylated (P) and un-phosphorylated (UP) proteins, a 5 μL/well volume of enzyme diluted in assay buffer (50 mM HEPES, 10 mM MgCl2, 1 mM EGTA, 0.01% Tween-20, 5 mM DTT, pH 7.5) was added to the plate and pre-incubated with inhibitor for 5 to 15 minutes at ambient temperature. Appropriate controls (enzyme blank and enzyme with no inhibitor) were included on the plate. The reaction was initiated by the addition of a 5 μL/well volume containing both biotinylated [sequence] […] The plate was allowed to equilibrate for −10 minutes at ambient temperature before scanning on a PheraStar plate reader (BMG Labtech) instrument.
Either GraphPad prism or XLfit was used to analyze the data. The IC50 values were derived by fitting the data to a four parameter logistic equation producing a sigmoidal dose-response curve with a variable Hill coefficient. Prism equation: Y=Bottom+(Top−Bottom)/(1+10^((LogIC50−X)*Hill slope)); XLfit equation: Y=(A+((B−A)/(1+((X/C)^D)))) where X is the logarithm of inhibitor concentration and Y is the response.

FGFR1 (UP) = FGFR1 (UP) (Homo sapiens (Human), UniProt P11362); experiment: FGFR Enzymatic Assay, FGFR1 un-phosphorylated
ALK2 = ALK2 (Homo sapiens (Human), UniProt Q04771); experiment: ALK2 Cellular Assay (phospho SMAD1 HTRF, BMP-7 stimulated HeLa cells); type: cell-based; conditions: read-out: ALK2 Cellular Assay PSMAD
Procedure: HeLa cells were cultured in MEM media with 10% FBS. […] HeLa cells were plated in 96 well flat bottomed plate at 50,000 cells per well and incubated overnight. Next day, media was removed and 50 μL of fresh complete media was added. 5 μL compound was added to cells (3 μM final concentration at highest) and incubated for 60 min at 37° C. 200 ng/ml BMP-7 was added and incubated for 30 min at 37° C. After incubation, the media was removed, washed 2×PBS, and proceeded with HTRF kit according to Cisbio HTRF kit instructions for measuring the Phospho SMAD1 (S463/S465). Finally, both the donor and acceptor were added into 384 well plates and incubated at room temperature overnight and the HTRF signal was measured via Pherastar the next day.

ALK2 (aa 147-end) = ALK2 (aa 147-end) (Homo sapiens (Human), UniProt Q04771); experiment: ALK2 HTRF Assay; type: biochemical
Procedure: The enzymatic assays were conducted in white 384-well polystyrene plates in a final volume of 8 μL. The inhibitors were serially diluted in DMSO and added to the plate wells prior to addition of the other reaction components. The assays were carried out at 25° C. in the assay buffer (50 mM HEPES, pH 7.1, 10% Glycerol, 0.01% Brij50, 10 mM MgCl2, 1 mM EGTA, 5 mM DTT, and 0.01% BSA), containing 50 nM LANCE Ultra ULight™-DNA Topoisomerase 2-alpha peptide (Perkin Elmer TRF0130), and 3 uM, 100 uM or 1 mM ATP (as specified). […] The reaction was read on a PHERAstar FS plate reader (BMG Labtech). IC50 determination was performed by fitting percent control activity versus the log of the inhibitor concentration using the IDBS XLFit and GraphPad Prism 5.0 software.

[1] = read-out: FGFR3 (UP) IC50, un-phosphorylated enzyme, ATP near or below Km
[2] = read-out: FGFR1 (UP) IC50, un-phosphorylated enzyme, ATP near or below Km
[3] = HeLa cells, 200 ng/ml BMP-7, Phospho SMAD1 (S463/S465) HTRF
[4] = read-out: ALK2 3 μM IC50, 3 uM ATP
[5] = read-out: ALK2 100 μM IC50, 100 uM ATP

Chain of FGFR2 (P) (P21802 22-821): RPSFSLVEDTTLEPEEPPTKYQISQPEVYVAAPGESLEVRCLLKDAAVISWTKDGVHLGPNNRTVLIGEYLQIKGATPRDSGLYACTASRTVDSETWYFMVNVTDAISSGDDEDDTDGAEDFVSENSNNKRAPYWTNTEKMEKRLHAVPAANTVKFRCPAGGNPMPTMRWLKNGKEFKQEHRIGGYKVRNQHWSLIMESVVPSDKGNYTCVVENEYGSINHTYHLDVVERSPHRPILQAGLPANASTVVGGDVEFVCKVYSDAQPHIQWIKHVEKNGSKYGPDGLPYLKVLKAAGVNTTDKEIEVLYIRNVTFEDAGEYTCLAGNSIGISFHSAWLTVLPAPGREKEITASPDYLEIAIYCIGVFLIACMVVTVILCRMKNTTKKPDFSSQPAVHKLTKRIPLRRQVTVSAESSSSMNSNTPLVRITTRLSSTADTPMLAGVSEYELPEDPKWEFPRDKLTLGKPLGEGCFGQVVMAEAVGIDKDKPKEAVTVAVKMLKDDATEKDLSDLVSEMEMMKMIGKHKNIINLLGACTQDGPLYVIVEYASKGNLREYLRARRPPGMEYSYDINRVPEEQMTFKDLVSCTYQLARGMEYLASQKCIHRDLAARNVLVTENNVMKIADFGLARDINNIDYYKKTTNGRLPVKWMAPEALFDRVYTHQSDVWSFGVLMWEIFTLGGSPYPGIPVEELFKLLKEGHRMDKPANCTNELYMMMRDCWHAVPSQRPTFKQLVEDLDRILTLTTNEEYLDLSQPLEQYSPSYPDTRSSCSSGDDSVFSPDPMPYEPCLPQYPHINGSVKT
Chain of FGFR1 (UP) (P11362 22-822): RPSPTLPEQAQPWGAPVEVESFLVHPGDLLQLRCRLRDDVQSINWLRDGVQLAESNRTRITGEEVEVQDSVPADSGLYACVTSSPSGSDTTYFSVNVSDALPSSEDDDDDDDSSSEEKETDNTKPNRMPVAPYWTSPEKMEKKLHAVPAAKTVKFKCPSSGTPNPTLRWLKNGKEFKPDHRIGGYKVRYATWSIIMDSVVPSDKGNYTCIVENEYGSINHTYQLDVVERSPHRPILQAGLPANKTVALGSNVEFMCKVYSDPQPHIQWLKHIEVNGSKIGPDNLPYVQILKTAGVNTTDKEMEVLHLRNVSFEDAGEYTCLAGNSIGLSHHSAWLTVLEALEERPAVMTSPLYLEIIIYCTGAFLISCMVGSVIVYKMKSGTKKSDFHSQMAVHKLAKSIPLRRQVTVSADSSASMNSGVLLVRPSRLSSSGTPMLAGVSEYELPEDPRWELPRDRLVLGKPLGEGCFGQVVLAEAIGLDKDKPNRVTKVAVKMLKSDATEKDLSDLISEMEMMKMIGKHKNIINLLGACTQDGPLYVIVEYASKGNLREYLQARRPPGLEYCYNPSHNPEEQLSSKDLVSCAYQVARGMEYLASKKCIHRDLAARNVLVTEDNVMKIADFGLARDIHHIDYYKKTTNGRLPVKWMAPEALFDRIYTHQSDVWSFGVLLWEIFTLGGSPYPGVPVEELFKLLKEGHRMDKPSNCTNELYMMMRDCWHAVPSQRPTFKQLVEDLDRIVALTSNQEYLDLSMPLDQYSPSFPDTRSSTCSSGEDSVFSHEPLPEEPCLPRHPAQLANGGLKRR
Chain of ALK2 (aa 147-end) (Q04771 147-509): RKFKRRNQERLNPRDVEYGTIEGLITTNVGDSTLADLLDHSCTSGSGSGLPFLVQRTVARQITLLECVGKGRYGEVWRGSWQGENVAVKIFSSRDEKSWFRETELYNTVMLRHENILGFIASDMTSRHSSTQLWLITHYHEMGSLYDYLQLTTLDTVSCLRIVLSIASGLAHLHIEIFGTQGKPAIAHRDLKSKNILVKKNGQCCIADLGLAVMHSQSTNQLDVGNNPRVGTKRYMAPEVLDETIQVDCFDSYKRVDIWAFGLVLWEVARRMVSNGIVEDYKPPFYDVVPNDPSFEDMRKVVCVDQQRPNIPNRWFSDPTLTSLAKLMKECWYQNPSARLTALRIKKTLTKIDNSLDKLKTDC
Chain of FGFR3 (UP) (P22607 23-806): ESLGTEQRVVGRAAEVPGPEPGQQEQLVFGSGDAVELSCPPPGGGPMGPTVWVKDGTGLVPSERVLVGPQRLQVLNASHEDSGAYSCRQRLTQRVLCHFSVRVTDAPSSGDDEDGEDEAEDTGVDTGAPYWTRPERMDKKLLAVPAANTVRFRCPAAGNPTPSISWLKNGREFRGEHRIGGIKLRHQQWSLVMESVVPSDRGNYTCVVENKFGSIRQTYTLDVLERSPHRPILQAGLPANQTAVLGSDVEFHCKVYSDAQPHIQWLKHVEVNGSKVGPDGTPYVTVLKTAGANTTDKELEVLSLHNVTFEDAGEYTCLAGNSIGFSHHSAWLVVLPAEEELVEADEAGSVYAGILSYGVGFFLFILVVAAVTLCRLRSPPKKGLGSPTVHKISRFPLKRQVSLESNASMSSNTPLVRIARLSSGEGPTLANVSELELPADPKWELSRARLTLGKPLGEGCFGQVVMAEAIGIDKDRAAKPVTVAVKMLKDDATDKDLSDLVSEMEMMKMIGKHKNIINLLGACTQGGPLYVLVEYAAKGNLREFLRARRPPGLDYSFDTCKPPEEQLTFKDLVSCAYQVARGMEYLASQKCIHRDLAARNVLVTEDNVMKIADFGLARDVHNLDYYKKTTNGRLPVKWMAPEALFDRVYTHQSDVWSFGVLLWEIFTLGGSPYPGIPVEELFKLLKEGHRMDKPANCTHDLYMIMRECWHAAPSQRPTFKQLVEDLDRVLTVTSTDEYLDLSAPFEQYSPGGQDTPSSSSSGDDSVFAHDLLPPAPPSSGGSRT
Chain of ALK2 (Q04771 21-509): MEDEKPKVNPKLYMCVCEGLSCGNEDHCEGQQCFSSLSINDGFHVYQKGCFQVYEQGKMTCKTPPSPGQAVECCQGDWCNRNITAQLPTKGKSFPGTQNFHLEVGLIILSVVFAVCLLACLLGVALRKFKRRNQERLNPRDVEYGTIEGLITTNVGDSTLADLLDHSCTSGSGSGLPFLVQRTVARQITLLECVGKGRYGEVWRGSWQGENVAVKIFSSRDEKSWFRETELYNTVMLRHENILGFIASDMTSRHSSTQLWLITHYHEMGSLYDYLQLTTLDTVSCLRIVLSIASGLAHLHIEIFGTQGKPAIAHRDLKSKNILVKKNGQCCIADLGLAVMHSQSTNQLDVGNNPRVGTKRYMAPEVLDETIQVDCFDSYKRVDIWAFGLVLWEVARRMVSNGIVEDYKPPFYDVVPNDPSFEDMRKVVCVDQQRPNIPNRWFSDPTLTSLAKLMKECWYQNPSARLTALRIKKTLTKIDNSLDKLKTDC

Compound | IC50 (RT112 cells) [nM] | IC50 (FGFR3 (UP); [1]) [nM] | IC50 (FGFR2 (P); read-out: FGFR2 (P) IC50) [nM] | IC50 (FGFR1 (UP)) [nM] | IC50 (FGFR2 (P); FGFR2 (P) IC50 (nM)) [nM] | IC50 (FGFR1 (UP); [2]) [nM] | IC50 (ALK2; [3]) [nM] | IC50 (ALK2 (aa 147-end); ALK2 100 μM IC50, 100 uM ATP) [nM] | IC50 (ALK2 (aa 147-end); ALK2 1 mM IC50, 1 mM ATP) [nM] | IC50 (ALK2 (aa 147-end); [4]) [nM] | IC50 (ALK2) [nM] | IC50 (FGFR3 (UP)) [nM] | IC50 (ALK2 (aa 147-end); [5]) [nM] | IC50 (ALK2 (aa 147-end); read-out: ALK2 1 mM IC50, 1 mM ATP) [nM]
CN1CC2CCC(C1=O)N2c1ncc2[nH]nc(-c3cnn(-c4ccc(C#N)c(F)c4)c3)c2n1 (stereo not drawn) [Example 78, 2-Fluoro-4-(4-(5-(3-methyl-2-oxo-3,8-diazabicyclo[3.2.1]octan-8-yl)-1H-pyrazolo[4,3-d]pyrimidin-3-yl)-1H-pyrazol-1-yl)benzonitrile] | 100 to 500 | < 100 | < 100 | 100 to 500 |  |  |  |  |  |  |  |  |  | 
Cc1cc(C#N)ccc1-n1cc(-c2n[nH]c3cnc(N4C5CCC4C(=O)N(C)C5)nc23)cn1 (stereo not drawn) [Example 77, 3-Methyl-4-(4-(5-(3-methyl-2-oxo-3,8-diazabicyclo[3.2.1]octan-8-yl)-1H-pyrazolo[4,3-d]pyrimidin-3-yl)-1H-pyrazol-1-yl)benzonitrile] | 500 to 2000 | < 100 |  | 500 to 2000 | 100 to 500 |  |  |  |  |  |  |  |  | 
CN1CC2CCC(C1=O)N2c1ncc2[nH]nc(-c3cnn(-c4ccc(C#N)nc4)c3)c2n1 (stereo not drawn) [Example 74, 5-(4-(5-(3-Methyl-2-oxo-3,8-diazabicyclo[3.2.1]octan-8-yl)-1H-pyrazolo[4,3-d]pyrimidin-3-yl)-1H-pyrazol-1-yl)picolinonitrile] | 100 to 500 | < 100 | < 100 |  |  | < 100 |  |  |  |  |  |  |  | 
CC1C(=O)N(CC(F)F)CCN1c1ncc2[nH]nc(-c3cnn(C)c3)c2n1 (stereo not drawn) [Example 46, 1-(2,2-Difluoroethyl)-3-methyl-4-(3-(1-methyl-1H-pyrazol-4-yl)-1H-pyrazolo[4,3-d]pyrimidin-5-yl)piperazin-2-one] | 100 to 500 | < 100 | < 100 | 100 to 500 |  |  |  |  |  |  |  |  |  | 
Cn1cc(-c2n[nH]c3cnc(N4CCc5ncsc5C4)nc23)cn1 [Example 42, 5-(3-(1-Methyl-1H-pyrazol-4-yl)-1H-pyrazolo[4,3-d]pyrimidin-5-yl)-4,5,6,7-tetrahydrothiazolo[5,4-c]pyridine] | 100 to 500 | < 100 |  | 500 to 2000 | 100 to 500 |  |  |  |  |  |  |  |  | 
CN(C)C(=O)N1CCC(n2cc(-c3n[nH]c4cnc(N5C6CCC5C(=O)N(C)C6)nc34)cn2)CC1 (stereo not drawn) [Example 56, N,N-Dimethyl-4-(4-(5-(3-methyl-2-oxo-3,8-diazabicyclo[3.2.1]octan-8-yl)-1H-pyrazolo[4,3-d]pyrimidin-3-yl)-1H-pyrazol-1-yl)piperidine-1-carboxamide] | 500 to 2000 | < 100 | < 100 | 100 to 500 |  |  |  |  |  |  |  |  |  | 
CCC1C(=O)N(C)CCN1c1ncc2[nH]nc(-c3cnn(C)c3)c2n1 (stereo not drawn) [Example 39, 3-Ethyl-1-methyl-4-(3-(1-methyl-1H-pyrazol-4-yl)-1H-pyrazolo[4,3-d]pyrimidin-5-yl)piperazin-2-one] | 100 to 500 | < 100 | < 100 | 100 to 500 |  |  |  |  |  |  |  |  |  | 
CC(C)C(=O)N1C[C@@H](C)N(c2ncc3[nH]nc(-c4ccc(N5CCN[C@H](C)C5)nc4)c3n2)[C@@H](C)C1 [Example 5, 1-((3R,5S)-3,5-Dimethyl-4-(3-(6-((R)-3-methylpiperazin-1-yl)pyridin-3-yl)-1H-pyrazolo[4,3-d]pyrimidin-5-yl)piperazin-1-yl)-2-methylpropan-1-one] |  | > 2000 | > 2000 |  |  | > 2000 | 500 to 2000 | 100 to 500 | 100 to 500 | < 100 |  |  |  | 
C[C@@H]1CN(c2ccc(-c3n[nH]c4cnc(N5[C@H](C)COC[C@@H]5C)nc34)cn2)CCN1 [Example 2, (3R,5S)-3,5-Dimethyl-4-(3-(6-((R)-3-methylpiperazin-1-yl)pyridin-3-yl)-1H-pyrazolo[4,3-d]pyrimidin-5-yl)morpholine] |  | < 100 |  | 100 to 500 | 100 to 500 |  | 100 to 500 | 100 to 500 | 500 to 2000 | < 100 |  |  |  | 
C[C@@H]1CN(c2ccc(-c3n[nH]c4cnc(N5[C@@H]6CC[C@H]5CN(c5ccc(C#N)cc5)C6)nc34)cn2)CCN1 [Example 15, 4-((1R,5S)-8-(3-(6-((R)-3-Methylpiperazin-1-yl)pyridin-3-yl)-1H-pyrazolo[4,3-d]pyrimidin-5-yl)-3,8-diazabicyclo[3.2.1]octan-3-yl)benzonitrile] |  | > 2000 | > 2000 |  |  | > 2000 |  | 100 to 500 | 500 to 2000 | < 100 | 500 to 2000 |  |  | 
CC(C)NC(=O)N1C[C@@H](C)N(c2ncc3[nH]nc(-c4ccc(N5CCN[C@H](C)C5)nc4)c3n2)[C@@H](C)C1 [Example 7, (3R,5S)—N-isopropyl-3,5-dimethyl-4-(3-(6-((R)-3-methylpiperazin-1-yl)pyridin-3-yl)-1H-pyrazolo[4,3-d]pyrimidin-5-yl)piperazine-1-carboxamide] |  |  |  | 500 to 2000 | 500 to 2000 |  | 100 to 500 | 100 to 500 | 100 to 500 | < 100 |  | 500 to 2000 |  | 
CN1CC2CCC(C1=O)N2c1ncc2[nH]nc(-c3cnn(-c4cccnc4)c3)c2n1 (stereo not drawn) [Example 69, 3-Methyl-8-(3-(1-(pyridin-3-yl)-1H-pyrazol-4-yl)-1H-pyrazolo[4,3-d]pyrimidin-5-yl)-3,8-diazabicyclo[3.2.1]octan-2-one] | 100 to 500 | < 100 | < 100 |  |  | < 100 |  |  |  |  |  |  |  | 
C[C@@H]1CN(c2ccc(-c3n[nH]c4cnc(N5CCc6c(ncn6C)C5)nc34)cn2)CCN1 [Example 18, (R)-5-(1-Methyl-1,4,6,7-tetrahydro-5H-imidazo[4,5-c]pyridin-5-yl)-3-(6-(3-methylpiperazin-1-yl)pyridin-3-yl)-1H-pyrazolo[4,3-d]pyrimidine] |  |  |  | 100 to 500 | 100 to 500 |  | 100 to 500 |  | 100 to 500 | < 100 |  | 100 to 500 | < 100 | 
C[C@@H]1CN(c2ccc(-c3n[nH]c4cnc(N5[C@H](C)CCC[C@@H]5C)nc34)cn2)CCN1 [Example 1, 5-((2R,6S)-2,6-Dimethylpiperidin-1-yl)-3-(6-((R)-3-methylpiperazin-1-yl)pyridin-3-yl)-1H-pyrazolo[4,3-d]pyrimidine] |  | < 100 | < 100 | 100 to 500 |  |  | 100 to 500 |  |  | < 100 |  |  | < 100 | < 100
CN1CC2CCC(C1=O)N2c1ncc2[nH]nc(-c3cnn(-c4cncc(C#N)c4)c3)c2n1 (stereo not drawn) [Example 73, 5-(4-(5-(3-Methyl-2-oxo-3,8-diazabicyclo[3.2.1]octan-8-yl)-1H-pyrazolo[4,3-d]pyrimidin-3-yl)-1H-pyrazol-1-yl)nicotinonitrile] | 500 to 2000 | < 100 | < 100 | 100 to 500 |  |  |  |  |  |  |  |  |  | 

From patent US11111247B2, “Pyrazolopyrimidine compounds and uses thereof” (Incyte Corporation, priority 2018, dated 2021)
